# Experimental data taken from US6358885B1, “Substituted phenylheterocyclic herbicides” (Mississippi State University, priority 1992, dated 2002).
# Legend:
# blackgrass = experiment: Test C preemergence/postemergence greenhouse plant response rating 0 to 100; assay type: in vivo, Alopecurus myosuroides; conditions: POSTEMERGENCE; for Plant response rating, Blackgrass: 62 g/ha, 0 to 100 scale
# Outline: (§1)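 Compounds in non-phytotoxic solvent applied preemergence to sandy loam one day after planting, postemergence at the 1–4 leaf stage, or to ~2.5 cm floodwater over silt loam.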
# rice = experiment: Test B preemergence/postemergence greenhouse plant response rating 0 to 10; assay type: in vivo, Oryza sativa; conditions: 0 to 10 scale
# Outline: (§2)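 Postemergence treatment of plants two to eighteen cm tall ran alongside preemergence treatment of planted seed, each using compound in a non-phytotoxic solvent.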
# wild buckwheat [1] = experiment: as above; assay type: in vivo, Polygonum convolvulus; conditions: 0 to 10 scale
# Outline: as §2
# barnyardgrass = experiment: Test C flood test plant response rating 0 to 100; assay type: in vivo, Echinochloa crus-galli; conditions: for Plant response rating, Barnyardgrass: flood test species listed under POSTEMERGENCE, 62 g/ha, 0 to 100 scale
# Outline: as §1
# wild oat = experiment: Test B preemergence/postemergence greenhouse plant response rating 0 to 10; assay type: in vivo, Avena fatua; conditions: 0 to 10 scale
# Outline: as §2
# yellow nutsedge = experiment: Test G preemergence/postemergence greenhouse plant response rating 0 to 100; assay type: in vivo, Cyperus esculentus; conditions: Rate 125 g/ha, 0 to 100 scale
# Outline: (§3)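 Greenhouse pots, one species each; non-phytotoxic solvent vehicle. Read-out: visual injury vs untreated, 13–21 DAT. Dash denotes no result.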
# wheat = experiment: Test B preemergence/postemergence greenhouse plant response rating 0 to 10; assay type: in vivo, Triticum aestivum; conditions: 0 to 10 scale
# Outline: as §2
# peanut = experiment: Test G preemergence/postemergence greenhouse plant response rating 0 to 100; assay type: in vivo, Arachis hypoagaea; conditions: 0 to 100 scale
# Outline: as §3
# wild buckwheat [2] = experiment: Test C preemergence/postemergence greenhouse plant response rating 0 to 100; assay type: in vivo, Polygonum convolvulus; conditions: POSTEMERGENCE; for Plant response rating, Wild buckwheat: 62 g/ha, 0 to 100 scale
# Outline: as §1
# soybean = experiment: Test B preemergence/postemergence greenhouse plant response rating 0 to 10; assay type: in vivo, Glycine max; conditions: 0 to 10 scale
# Outline: as §2
# sugar beet = experiment: Test C preemergence/postemergence greenhouse plant response rating 0 to 100; assay type: in vivo, Beta vulgaris; conditions: POSTEMERGENCE; for Plant response rating, Sugar beet: 62 g/ha, 0 to 100 scale
# Outline: as §1
# lambsquarters = experiment: Test B preemergence/postemergence greenhouse plant response rating 0 to 10; assay type: in vivo, Chenopodium album; conditions: 0 to 10 scale
# Outline: as §2
# downy brome = experiment: Test C preemergence/postemergence greenhouse plant response rating 0 to 100; assay type: in vivo, Bromus tectorum; conditions: POSTEMERGENCE; for Plant response rating Downy Brome: 62 g/ha, 0 to 100 scale
# Outline: as §1
# sorghum = experiment: as above; assay type: in vivo, Sorghum bicolor; conditions: POSTEMERGENCE; for Plant response rating, Sorghum: 62 g/ha, 0 to 100 scale
# Outline: as §1
# [3] = POSTEMERGENCE section, flood test, Rate 1 g/ha
# [4] = Rate 4 g/ha, under POSTEMERGENCE head (flood test species)
# [5] = Rate 16 g/ha, under POSTEMERGENCE head (flood test species)
smiles,measurement,setting,value
C=CCN1C(=O)COc2cc(F)c(-c3nn4c(c3Cl)CCCC4)cc21 [Compound 33],"Plant response rating, Blackgrass",blackgrass,60
same,"Plant response rating (0 to 100), Blackgrass",blackgrass; Rate 1 g/ha,30
same,"Plant response rating (0 to 100), Blackgrass",blackgrass; Rate 4 g/ha,50
same,"Plant response rating (0 to 100), Blackgrass",blackgrass; Rate 16 g/ha,50
same,"Plant response rating, Rice","rice; POSTEMERGENCE, Rate 10 g/ha",6
same,"Plant response rating, Rice","rice; POSTEMERGENCE, Rate 50 g/ha",7
same,"Plant response rating, Rice","rice; PREEMERGENCE, Rate 50 g/ha",3
same,"Plant response rating, Wild buckwheat","wild buckwheat [1]; POSTEMERGENCE, Rate 10 g/ha",10
same,"Plant response rating, Wild buckwheat","wild buckwheat [1]; POSTEMERGENCE, Rate 50 g/ha",10
same,"Plant response rating (0 to 100), Barnyardgrass",barnyardgrass; [3],35
same,"Plant response rating (0 to 100), Barnyardgrass",barnyardgrass; [4],65
same,"Plant response rating (0 to 100), Barnyardgrass",barnyardgrass; [5],95
same,"Plant response rating, Barnyardgrass",barnyardgrass,100
same,"Plant response rating, Wild oat","wild oat; POSTEMERGENCE, Rate 10 g/ha",4
same,"Plant response rating, Wild oat","wild oat; POSTEMERGENCE, Rate 50 g/ha",5
same,"Plant response rating, Wild oat","wild oat; PREEMERGENCE, Rate 50 g/ha",7
same,"Plant response rating, Yellow Nutsedge",yellow nutsedge; POSTEMERGENCE,0
same,"Plant response rating, Yellow Nutsedge",yellow nutsedge; PREEMERGENCE,0
same,"Plant response rating, Wheat","wheat; POSTEMERGENCE, Rate 10 g/ha",3
same,"Plant response rating, Wheat","wheat; POSTEMERGENCE, Rate 50 g/ha",5
same,"Plant response rating, Wheat","wheat; PREEMERGENCE, Rate 50 g/ha",2
same,"Plant response rating, Peanuts","peanut; POSTEMERGENCE, Rate 125 g/ha",0
same,"Plant response rating, Peanuts","peanut; POSTEMERGENCE, Rate 250 g/ha",0
same,"Plant response rating, Peanuts","peanut; PREEMERGENCE, Rate 125 g/ha",0
same,"Plant response rating, Peanuts","peanut; PREEMERGENCE, Rate 250 g/ha",0
same,"Plant response rating, Wild buckwheat",wild buckwheat [2],100
same,"Plant response rating (0 to 100), Wild buckwheat",wild buckwheat [2]; Rate 1 g/ha,80
same,"Plant response rating (0 to 100), Wild buckwheat",wild buckwheat [2]; Rate 4 g/ha,90
same,"Plant response rating, Soybean","soybean; POSTEMERGENCE, Rate 10 g/ha",8
same,"Plant response rating, Soybean","soybean; POSTEMERGENCE, Rate 50 g/ha",9
same,"Plant response rating, Soybean","soybean; PREEMERGENCE, Rate 50 g/ha",2
same,"Plant response rating, Sugar beet",sugar beet,100
same,"Plant response rating (0 to 100), Sugar beet",sugar beet; Rate 1 g/ha,100
same,"Plant response rating (0 to 100), Sugar beet",sugar beet; Rate 4 g/ha,100
same,"Plant response rating (0 to 100), Sugar beet",sugar beet; Rate 16 g/ha,100
same,"Plant response rating, Lambsquarter","lambsquarters; POSTEMERGENCE, Rate 10 g/ha",9
same,"Plant response rating, Lambsquarter","lambsquarters; POSTEMERGENCE, Rate 50 g/ha",10
same,"Plant response rating, Lambsquarter","lambsquarters; PREEMERGENCE, Rate 50 g/ha",10
same,Plant response rating Downy Brome,downy brome,60
same,"Plant response rating (0 to 100), Downy Brome",downy brome; Rate 1 g/ha,30
same,"Plant response rating (0 to 100), Downy Brome",downy brome; Rate 4 g/ha,40
same,"Plant response rating (0 to 100), Downy Brome",downy brome; Rate 16 g/ha,60
same,"Plant response rating, Sorghum",sorghum,40
same,"Plant response rating (0 to 100), Sorghum",sorghum; Rate 1 g/ha,0
same,"Plant response rating (0 to 100), Sorghum",sorghum; Rate 4 g/ha,20
same,"Plant response rating (0 to 100), Sorghum",sorghum; Rate 16 g/ha,20
C#CCN1C(=O)COc2cc(F)c(-c3nn4c(c3Cl)CCCC4)cc21 [Compound 34],"Plant response rating, Blackgrass",blackgrass,60
same,"Plant response rating (0 to 100), Blackgrass",blackgrass; Rate 1 g/ha,20
same,"Plant response rating (0 to 100), Blackgrass",blackgrass; Rate 4 g/ha,30
same,"Plant response rating (0 to 100), Blackgrass",blackgrass; Rate 16 g/ha,50
same,"Plant response rating, Rice","rice; POSTEMERGENCE, Rate 10 g/ha",5
same,"Plant response rating, Rice","rice; POSTEMERGENCE, Rate 50 g/ha",5
same,"Plant response rating, Rice","rice; PREEMERGENCE, Rate 50 g/ha",2
same,"Plant response rating, Wild buckwheat","wild buckwheat [1]; POSTEMERGENCE, Rate 10 g/ha",10
same,"Plant response rating, Wild buckwheat","wild buckwheat [1]; POSTEMERGENCE, Rate 50 g/ha",10
same,"Plant response rating, Wild buckwheat","wild buckwheat [1]; PREEMERGENCE, Rate 50 g/ha",8
same,"Plant response rating (0 to 100), Barnyardgrass",barnyardgrass; [3],60
same,"Plant response rating (0 to 100), Barnyardgrass",barnyardgrass; [4],75
same,"Plant response rating (0 to 100), Barnyardgrass",barnyardgrass; [5],95
same,"Plant response rating, Barnyardgrass",barnyardgrass,100
same,"Plant response rating, Wild oat","wild oat; POSTEMERGENCE, Rate 10 g/ha",5
same,"Plant response rating, Wild oat","wild oat; POSTEMERGENCE, Rate 50 g/ha",5
same,"Plant response rating, Wild oat","wild oat; PREEMERGENCE, Rate 50 g/ha",7
same,"Plant response rating, Yellow Nutsedge",yellow nutsedge; POSTEMERGENCE,0
same,"Plant response rating, Yellow Nutsedge",yellow nutsedge; PREEMERGENCE,0
same,"Plant response rating, Wheat","wheat; POSTEMERGENCE, Rate 10 g/ha",5
same,"Plant response rating, Wheat","wheat; POSTEMERGENCE, Rate 50 g/ha",5
same,"Plant response rating, Wheat","wheat; PREEMERGENCE, Rate 50 g/ha",3
same,"Plant response rating, Peanuts","peanut; POSTEMERGENCE, Rate 125 g/ha",30
same,"Plant response rating, Peanuts","peanut; POSTEMERGENCE, Rate 250 g/ha",0
same,"Plant response rating, Peanuts","peanut; PREEMERGENCE, Rate 125 g/ha",0
same,"Plant response rating, Peanuts","peanut; PREEMERGENCE, Rate 250 g/ha",0
same,"Plant response rating, Wild buckwheat",wild buckwheat [2],100
same,"Plant response rating (0 to 100), Wild buckwheat",wild buckwheat [2]; Rate 4 g/ha,50
same,"Plant response rating (0 to 100), Wild buckwheat",wild buckwheat [2]; Rate 16 g/ha,100
same,"Plant response rating, Soybean","soybean; POSTEMERGENCE, Rate 10 g/ha",8
same,"Plant response rating, Soybean","soybean; POSTEMERGENCE, Rate 50 g/ha",10
same,"Plant response rating, Soybean","soybean; PREEMERGENCE, Rate 50 g/ha",6
same,"Plant response rating, Sugar beet",sugar beet,100
same,"Plant response rating (0 to 100), Sugar beet",sugar beet; Rate 4 g/ha,80
same,"Plant response rating (0 to 100), Sugar beet",sugar beet; Rate 16 g/ha,100
same,"Plant response rating, Lambsquarter","lambsquarters; POSTEMERGENCE, Rate 10 g/ha",9
same,"Plant response rating, Lambsquarter","lambsquarters; POSTEMERGENCE, Rate 50 g/ha",10
same,"Plant response rating, Lambsquarter","lambsquarters; PREEMERGENCE, Rate 50 g/ha",10
same,Plant response rating Downy Brome,downy brome,50
same,"Plant response rating (0 to 100), Downy Brome",downy brome; Rate 1 g/ha,20
same,"Plant response rating (0 to 100), Downy Brome",downy brome; Rate 4 g/ha,30
same,"Plant response rating (0 to 100), Downy Brome",downy brome; Rate 16 g/ha,40
same,"Plant response rating, Sorghum",sorghum,70
same,"Plant response rating (0 to 100), Sorghum",sorghum; Rate 1 g/ha,30
same,"Plant response rating (0 to 100), Sorghum",sorghum; Rate 4 g/ha,40
same,"Plant response rating (0 to 100), Sorghum",sorghum; Rate 16 g/ha,50
